Values joined by “and” are separate entries in the source; they are usually repeats but may differ in a detail not shown here. Equal entries are not always repeated.
Tested on: athymic mice bearing HepG2 xenografts
Assay: Tissue distribution studies in HepG2 xenografts
Assay type: in vivo
Method: Based on the promising results obtained with [^18F]1 in vitro, tissue distribution studies were conducted in athymic mice bearing subcutaneous HepG2 tumor xenografts. HepG2 tumor model was selected because of the higher uptake of [^18F]1 in HepG2 cells and a substantial increase in the uptake in response to co-incubation with 100 µM SP-141, compared to that in MCF-7 cells (Figure 5). Groups of five mice were injected intravenously with [^18F]1 and euthanized at 0.5, 1, or 2 h post injection to determine the tissue distribution of [^18F]1. A separate group of animals (n = 4) were injected intraperitoneally with SP-141 (1.2 mg per mouse; ~140 µM) 30 min before [^18F]1 injection to assess the specificity of tracer uptake in tumors. […] At 30 min post injection, radioactivity levels in most organs were ≥3 %ID/g and decreased to ~2 %ID/g by 2 h.
All animal experiments were conducted in accordance with the regulations of the Duke University Institutional Animal Care and Use Committee (IACUC) under an IACUC-approved protocol. Tissue distribution studies were conducted in mice bearing subcutaneous HepG2 tumor xenografts. To generate the tumor model, male athymic mice (Jackson Labs, Farmington, CT, USA) were injected with 5 × 10^6 HepG2 cells suspended in DMEM and Matrigel (Corning®, Corning, NY, USA, 1:1, 100 µL) in the flank; tissue distribution studies were initiated when the tumor volume reached 200 mm^3. For these studies, groups of five mice were injected with [^18F]1 by the intravenous route and euthanized at 0.5, 1, or 2 h post injection (n = 5 per time point) to assess the tissue distribution of [^18F]1 as described previously. A separate group of animals (n = 4) was injected with SP-141 (1.2 mg per mouse; ~140 µM) by intraperitoneal injection 30 min before [^18F]1 injection to assess the specificity of tracer uptake. The concentration of ^18F activity was calculated as the percentage injected dose per gram tissue (%ID/g).

[1] = 1 h Block: SP-141 (1.2 mg) i.p. 30 min before i.v. [^18F]1

**Q.** For `[18F]CCOc1ccc2[nH]c3c(-c4cccc5ccccc45)nccc3c2c1` [[^18F]1], which “Biodistribution, Blood” value (30 min post i.v. injection) is on record?
**A.** 4.2 ± 0.6 %ID/g

**Q.** And the “Biodistribution, Bone” value (30 min post i.v. injection)?
**A.** 3.1 ± 0.6 %ID/g

**Q.** What about the “Biodistribution, Brain” value (30 min post i.v. injection) of the same compound?
**A.** 2.9 ± 0.8 %ID/g

**Q.** And the “Biodistribution, Heart” value (30 min post i.v. injection)?
**A.** 4.1 ± 0.7 %ID/g

**Q.** What about the “Biodistribution, Kidneys” value (30 min post i.v. injection) of the same compound?
**A.** 3.7 ± 0.8 %ID/g

**Q.** And the “Biodistribution, Large Intestine” value (30 min post i.v. injection)?
**A.** 6.1 ± 1.7 %ID/g

**Q.** What about the “Biodistribution, Liver” value (30 min post i.v. injection) of the same compound?
**A.** 3.2 ± 0.5 %ID/g

**Q.** What about the “Biodistribution, Lungs” value (30 min post i.v. injection) of the same compound?
**A.** 3.9 ± 0.6 %ID/g

**Q.** What about the “Biodistribution, Muscle” value (30 min post i.v. injection) of the same compound?
**A.** 3.5 ± 0.8 %ID/g

**Q.** What about the “Biodistribution, Skin” value (30 min post i.v. injection) of the same compound?
**A.** 3.7 ± 0.7 %ID/g

**Q.** What about the “Biodistribution, Small Intestine” value (30 min post i.v. injection) of the same compound?
**A.** 3.9 ± 1.0 %ID/g

**Q.** And the “Biodistribution, Spleen” value (30 min post i.v. injection)?
**A.** 3.3 ± 0.4 %ID/g

**Q.** And the “Biodistribution, Stomach” value (30 min post i.v. injection)?
**A.** 5.1 ± 2.0 %ID/g

**Q.** What about the “Biodistribution, Tumor (HepG2 xenograft)” value (30 min post i.v. injection) of the same compound?
**A.** 3.3 ± 0.3 %ID/g

**Q.** And the “Biodistribution, Blood” value [1]?
**A.** 2.7 ± 0.9 %ID/g

**Q.** And the “Biodistribution, Bone” value [1]?
**A.** 1.9 ± 0.4 %ID/g

**Q.** What about the “Biodistribution, Brain” value [1] of the same compound?
**A.** 3.3 ± 0.5 %ID/g

**Q.** What about the “Biodistribution, Heart” value [1] of the same compound?
**A.** 3.7 ± 0.3 %ID/g

**Q.** And the “Biodistribution, Kidneys” value [1]?
**A.** 3.8 ± 0.4 %ID/g

**Q.** And the “Biodistribution, Large Intestine” value [1]?
**A.** 3.4 ± 1.4 %ID/g

**Q.** And the “Biodistribution, Liver” value [1]?
**A.** 3.3 ± 0.6 %ID/g

**Q.** What about the “Biodistribution, Lungs” value [1] of the same compound?
**A.** 3.5 ± 0.8 %ID/g

**Q.** What about the “Biodistribution, Muscle” value [1] of the same compound?
**A.** 3.3 ± 0.4 %ID/g

**Q.** What about the “Biodistribution, Skin” value [1] of the same compound?
**A.** 3.0 ± 0.7 %ID/g

**Q.** What about the “Biodistribution, Small Intestine” value [1] of the same compound?
**A.** 4.1 ± 0.3 %ID/g

**Q.** And the “Biodistribution, Spleen” value [1]?
**A.** 3.0 ± 0.6 %ID/g

**Q.** What about the “Biodistribution, Stomach” value [1] of the same compound?
**A.** 1.6 ± 1.2 %ID/g

**Q.** And the “Biodistribution, Tumor (HepG2 xenograft)” value [1]?
**A.** 3.2 ± 0.7 %ID/g

**Q.** And the “Biodistribution, Blood” value (1 h post i.v. injection)?
**A.** 4.1 ± 0.6 %ID/g

**Q.** What about the “Biodistribution, Bone” value (1 h post i.v. injection) of the same compound?
**A.** 3.6 ± 1.0 %ID/g

**Q.** What about the “Biodistribution, Brain” value (1 h post i.v. injection) of the same compound?
**A.** 2.6 ± 0.8 %ID/g

**Q.** And the “Biodistribution, Heart” value (1 h post i.v. injection)?
**A.** 4.0 ± 0.7 %ID/g

**Q.** What about the “Biodistribution, Kidneys” value (1 h post i.v. injection) of the same compound?
**A.** 3.3 ± 0.6 %ID/g

**Q.** What about the “Biodistribution, Large Intestine” value (1 h post i.v. injection) of the same compound?
**A.** 7.7 ± 1.8 %ID/g

**Q.** And the “Biodistribution, Liver” value (1 h post i.v. injection)?
**A.** 2.8 ± 0.4 %ID/g

**Q.** And the “Biodistribution, Lungs” value (1 h post i.v. injection)?
**A.** 3.8 ± 0.7 %ID/g

**Q.** And the “Biodistribution, Muscle” value (1 h post i.v. injection)?
**A.** 2.6 ± 0.6 %ID/g

**Q.** And the “Biodistribution, Skin” value (1 h post i.v. injection)?
**A.** 3.4 ± 0.5 %ID/g

**Q.** What about the “Biodistribution, Small Intestine” value (1 h post i.v. injection) of the same compound?
**A.** 4.0 ± 0.7 %ID/g

**Q.** What about the “Biodistribution, Spleen” value (1 h post i.v. injection) of the same compound?
**A.** 2.7 ± 0.7 %ID/g

**Q.** And the “Biodistribution, Stomach” value (1 h post i.v. injection)?
**A.** 2.7 ± 0.8 %ID/g

**Q.** And the “Biodistribution, Tumor (HepG2 xenograft)” value (1 h post i.v. injection)?
**A.** 3.0 ± 0.7 %ID/g

**Q.** And the “Biodistribution, Blood” value (2 h post i.v. injection)?
**A.** 3.3 ± 0.8 %ID/g

**Q.** What about the “Biodistribution, Bone” value (2 h post i.v. injection) of the same compound?
**A.** 5.4 ± 0.8 %ID/g

**Q.** What about the “Biodistribution, Brain” value (2 h post i.v. injection) of the same compound?
**A.** 2.0 ± 0.7 %ID/g

**Q.** And the “Biodistribution, Heart” value (2 h post i.v. injection)?
**A.** 3.3 ± 0.9 %ID/g

**Q.** And the “Biodistribution, Kidneys” value (2 h post i.v. injection)?
**A.** 2.4 ± 0.6 %ID/g

**Q.** And the “Biodistribution, Large Intestine” value (2 h post i.v. injection)?
**A.** 7.1 ± 2.9 %ID/g

**Q.** And the “Biodistribution, Liver” value (2 h post i.v. injection)?
**A.** 2.4 ± 0.5 %ID/g

**Q.** And the “Biodistribution, Lungs” value (2 h post i.v. injection)?
**A.** 2.1 ± 0.8 %ID/g

**Q.** What about the “Biodistribution, Muscle” value (2 h post i.v. injection) of the same compound?
**A.** 2.6 ± 0.7 %ID/g

**Q.** What about the “Biodistribution, Skin” value (2 h post i.v. injection) of the same compound?
**A.** 3.1 ± 0.4 %ID/g

**Q.** What about the “Biodistribution, Small Intestine” value (2 h post i.v. injection) of the same compound?
**A.** 3.0 ± 0.5 %ID/g

**Q.** And the “Biodistribution, Spleen” value (2 h post i.v. injection)?
**A.** 2.1 ± 0.4 %ID/g

**Q.** And the “Biodistribution, Stomach” value (2 h post i.v. injection)?
**A.** 2.1 ± 0.7 %ID/g

**Q.** What about the “Biodistribution, Tumor (HepG2 xenograft)” value (2 h post i.v. injection) of the same compound?
**A.** 3.0 ± 0.8 %ID/g

**Q.** What about the “Radioactivity levels in most organs / normal tissues” value (2 h post injection) of the same compound?
**A.** ~ 2 %ID/g and 2–3 %ID/g

**Q.** And the Tumor-to-muscle ratio (2 h post injection)?
**A.** 1.14 ± 0.18

**Q.** What about the “Tumor-to-normal tissue (tumor-to-background) ratios” value (2 h post injection) of the same compound?
**A.** < 2

**Q.** What about the “Tumor uptake and retention in HepG2 xenografts” value (over the 2-h observation period) of the same compound?
**A.** ~ 3 %ID/g
